Reference: ChEMBL document CHEMBL4507267 (2021)

Columns and labels:
[1] = molecular target: ALK tyrosine kinase receptor (Homo sapiens) (UniProt Q9UM73); details: Compound concentration 1000.0 nM
[2] = molecular target: Serine/threonine-protein kinase BRSK2 (Homo sapiens) (UniProt Q8IWQ3); details: Compound concentration 1000.0 nM
[3] = molecular target: Calcium/calmodulin-dependent protein kinase type 1D (Homo sapiens) (UniProt Q8IU85); details: Compound concentration 1000.0 nM
[4] = molecular target: Cyclin-dependent kinase 11B (Homo sapiens) (UniProt P21127); details: Compound concentration 1000.0 nM
Chain of Cyclin-dependent kinase 11B (Homo sapiens) (P21127 whole entry): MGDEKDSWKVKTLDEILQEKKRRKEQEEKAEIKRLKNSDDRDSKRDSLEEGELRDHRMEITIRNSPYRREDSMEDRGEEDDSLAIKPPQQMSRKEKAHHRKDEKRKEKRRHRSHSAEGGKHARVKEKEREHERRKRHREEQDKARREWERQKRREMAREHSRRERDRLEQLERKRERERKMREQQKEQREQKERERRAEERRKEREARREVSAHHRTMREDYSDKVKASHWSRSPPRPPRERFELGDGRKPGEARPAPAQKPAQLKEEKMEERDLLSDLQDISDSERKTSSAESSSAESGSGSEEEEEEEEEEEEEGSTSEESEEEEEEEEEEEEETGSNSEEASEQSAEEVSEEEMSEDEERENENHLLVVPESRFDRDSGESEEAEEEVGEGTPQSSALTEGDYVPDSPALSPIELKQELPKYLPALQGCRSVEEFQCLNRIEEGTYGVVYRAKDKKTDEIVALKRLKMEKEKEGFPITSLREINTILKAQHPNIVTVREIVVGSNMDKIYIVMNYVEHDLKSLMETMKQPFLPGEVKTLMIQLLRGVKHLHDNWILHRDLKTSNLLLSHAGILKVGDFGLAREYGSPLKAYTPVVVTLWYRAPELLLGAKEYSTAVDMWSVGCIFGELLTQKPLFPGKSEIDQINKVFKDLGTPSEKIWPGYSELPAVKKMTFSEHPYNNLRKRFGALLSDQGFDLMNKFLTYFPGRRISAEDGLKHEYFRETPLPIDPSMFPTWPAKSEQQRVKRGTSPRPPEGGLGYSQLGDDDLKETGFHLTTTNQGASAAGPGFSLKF

[5] = molecular target: Cyclin-dependent kinase 13 (Homo sapiens) (UniProt Q14004); details: Compound concentration 1000.0 nM
[6] = molecular target: Dual specificity protein kinase CLK3 (Homo sapiens) (UniProt P49761); details: Compound concentration 1000.0 nM
Chain of Dual specificity protein kinase CLK3 (Homo sapiens) (P49761 whole entry, looked up): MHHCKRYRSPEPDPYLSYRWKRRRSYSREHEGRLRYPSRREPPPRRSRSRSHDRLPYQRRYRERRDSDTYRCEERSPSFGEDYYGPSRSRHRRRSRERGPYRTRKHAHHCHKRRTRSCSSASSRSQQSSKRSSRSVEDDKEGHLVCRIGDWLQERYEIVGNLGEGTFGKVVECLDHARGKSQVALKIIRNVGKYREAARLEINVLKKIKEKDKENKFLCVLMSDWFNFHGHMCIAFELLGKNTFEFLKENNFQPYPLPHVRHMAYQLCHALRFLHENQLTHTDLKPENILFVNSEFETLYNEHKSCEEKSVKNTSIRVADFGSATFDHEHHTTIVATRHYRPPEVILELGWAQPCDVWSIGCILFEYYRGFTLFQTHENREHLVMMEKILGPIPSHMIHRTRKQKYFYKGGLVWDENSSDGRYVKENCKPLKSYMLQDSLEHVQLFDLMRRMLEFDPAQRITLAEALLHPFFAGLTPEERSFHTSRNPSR

[7] = molecular target: Casein kinase II subunit alpha' (Homo sapiens) (UniProt P19784); details: Compound concentration 1000.0 nM
[8] = molecular target: Myotonin-protein kinase (Homo sapiens) (UniProt Q09013); details: Compound concentration 1000.0 nM
[9] = molecular target: Ephrin type-B receptor 3 (Homo sapiens) (UniProt P54753); details: Compound concentration 1000.0 nM
Chain of Ephrin type-B receptor 3 (Homo sapiens) (P54753 whole entry): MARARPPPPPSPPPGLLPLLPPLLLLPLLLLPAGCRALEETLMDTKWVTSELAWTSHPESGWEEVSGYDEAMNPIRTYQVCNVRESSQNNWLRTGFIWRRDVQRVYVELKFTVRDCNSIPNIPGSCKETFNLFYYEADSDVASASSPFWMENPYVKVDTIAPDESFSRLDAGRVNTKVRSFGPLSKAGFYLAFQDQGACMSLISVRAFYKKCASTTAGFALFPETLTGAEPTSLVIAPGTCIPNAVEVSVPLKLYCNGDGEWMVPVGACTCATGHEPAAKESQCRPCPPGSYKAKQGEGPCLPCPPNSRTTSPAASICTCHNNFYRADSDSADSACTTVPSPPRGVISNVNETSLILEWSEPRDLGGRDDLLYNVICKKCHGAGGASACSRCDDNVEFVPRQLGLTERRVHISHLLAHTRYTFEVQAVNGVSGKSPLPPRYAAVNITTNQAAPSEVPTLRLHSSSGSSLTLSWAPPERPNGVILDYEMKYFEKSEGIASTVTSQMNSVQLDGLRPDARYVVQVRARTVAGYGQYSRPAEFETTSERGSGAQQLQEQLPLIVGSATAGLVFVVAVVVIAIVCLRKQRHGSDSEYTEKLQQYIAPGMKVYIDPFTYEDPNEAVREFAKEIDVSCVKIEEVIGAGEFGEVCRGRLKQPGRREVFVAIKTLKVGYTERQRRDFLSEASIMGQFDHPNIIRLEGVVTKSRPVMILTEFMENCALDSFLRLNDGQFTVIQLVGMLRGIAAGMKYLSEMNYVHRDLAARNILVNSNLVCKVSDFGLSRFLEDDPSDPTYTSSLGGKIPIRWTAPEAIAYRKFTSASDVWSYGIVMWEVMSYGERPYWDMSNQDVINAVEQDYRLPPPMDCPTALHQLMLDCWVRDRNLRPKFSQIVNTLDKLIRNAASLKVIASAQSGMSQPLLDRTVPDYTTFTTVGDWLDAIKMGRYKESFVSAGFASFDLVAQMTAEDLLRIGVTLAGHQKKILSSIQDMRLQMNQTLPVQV

[10] = molecular target: Ephrin type-B receptor 6 (Homo sapiens) (UniProt O15197); details: Compound concentration 1000.0 nM
[11] = molecular target: Mitogen-activated protein kinase 6 (Homo sapiens) (UniProt Q16659); details: Compound concentration 1000.0 nM
[12] = molecular target: Mitogen-activated protein kinase 7 (Homo sapiens) (UniProt Q13164); details: Compound concentration 1000.0 nM
[13] = tested on: Receptor-type tyrosine-protein kinase FLT3 (Homo sapiens), P36888 [UNDEFINED MUTATION]; details: Compound concentration 1000.0 nM
[14] = molecular target: Rhodopsin kinase GRK7 (Homo sapiens) (UniProt Q8WTQ7); details: Compound concentration 1000.0 nM
[15] = molecular target: Tyrosine-protein kinase JAK2 (Homo sapiens) (UniProt O60674); details: Compound concentration 1000.0 nM
[16] = tested on: Mast/stem cell growth factor receptor Kit (Homo sapiens), P10721 [D816V]; details: Compound concentration 1000.0 nM
[17] = molecular target: Leucine-rich repeat serine/threonine-protein kinase 2 (Homo sapiens) (UniProt Q5S007); details: Compound concentration 1000.0 nM
[18] = molecular target: Tyrosine-protein kinase Lyn (Homo sapiens) (UniProt P07948); details: Compound concentration 1000.0 nM
[19] = molecular target: Mitogen-activated protein kinase kinase kinase kinase 4 (Homo sapiens) (UniProt O95819); details: Compound concentration 1000.0 nM
Chain of Mitogen-activated protein kinase kinase kinase kinase 4 (Homo sapiens) (O95819 2-1239 limits assumed): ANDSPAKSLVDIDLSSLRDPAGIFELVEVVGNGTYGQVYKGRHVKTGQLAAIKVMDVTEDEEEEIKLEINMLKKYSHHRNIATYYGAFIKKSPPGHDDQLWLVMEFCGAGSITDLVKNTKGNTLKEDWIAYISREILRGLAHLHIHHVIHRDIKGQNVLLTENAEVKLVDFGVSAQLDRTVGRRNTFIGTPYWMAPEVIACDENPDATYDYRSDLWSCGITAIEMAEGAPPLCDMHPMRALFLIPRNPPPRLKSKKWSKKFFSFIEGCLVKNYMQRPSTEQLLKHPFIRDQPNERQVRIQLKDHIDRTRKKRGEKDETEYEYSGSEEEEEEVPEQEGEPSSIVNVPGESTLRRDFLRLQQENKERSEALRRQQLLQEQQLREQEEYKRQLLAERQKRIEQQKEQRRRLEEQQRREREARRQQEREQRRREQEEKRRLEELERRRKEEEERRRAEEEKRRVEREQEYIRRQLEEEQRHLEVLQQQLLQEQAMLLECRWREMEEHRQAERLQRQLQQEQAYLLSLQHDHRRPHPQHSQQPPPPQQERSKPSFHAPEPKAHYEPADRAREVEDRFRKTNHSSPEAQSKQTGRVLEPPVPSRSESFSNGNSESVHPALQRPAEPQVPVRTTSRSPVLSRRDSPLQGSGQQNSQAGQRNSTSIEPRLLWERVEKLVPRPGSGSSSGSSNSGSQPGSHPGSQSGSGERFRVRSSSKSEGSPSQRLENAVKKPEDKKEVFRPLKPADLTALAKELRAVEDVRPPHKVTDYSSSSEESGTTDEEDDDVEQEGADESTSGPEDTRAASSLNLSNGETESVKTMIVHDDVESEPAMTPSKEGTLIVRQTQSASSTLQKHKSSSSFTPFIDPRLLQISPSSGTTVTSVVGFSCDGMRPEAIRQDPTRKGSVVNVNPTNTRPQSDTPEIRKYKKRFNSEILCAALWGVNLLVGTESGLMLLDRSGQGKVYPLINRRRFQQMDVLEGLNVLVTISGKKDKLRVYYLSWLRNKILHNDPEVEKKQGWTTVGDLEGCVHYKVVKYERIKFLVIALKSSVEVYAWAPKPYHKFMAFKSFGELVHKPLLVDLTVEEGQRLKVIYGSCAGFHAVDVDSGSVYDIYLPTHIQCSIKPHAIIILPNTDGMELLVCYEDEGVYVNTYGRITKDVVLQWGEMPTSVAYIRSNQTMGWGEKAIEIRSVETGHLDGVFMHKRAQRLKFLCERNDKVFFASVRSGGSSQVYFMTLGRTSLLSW

[20] = molecular target: Serine/threonine-protein kinase MARK2 (Homo sapiens) (UniProt Q7KZI7); details: Compound concentration 1000.0 nM
[21] = molecular target: Dual specificity mitogen-activated protein kinase kinase 7 (Homo sapiens) (UniProt O14733); details: Compound concentration 1000.0 nM
[22] = molecular target: Mitogen-activated protein kinase kinase kinase 9 (Homo sapiens) (UniProt P80192); details: Compound concentration 1000.0 nM
[23] = molecular target: Serine/threonine-protein kinase 4 (Homo sapiens) (UniProt Q13043); details: Compound concentration 1000.0 nM
[24] = molecular target: Serine/threonine-protein kinase mTOR (Homo sapiens) (UniProt P42345); details: Compound concentration 1000.0 nM
[25] = molecular target: Myosin-IIIb (Homo sapiens) (UniProt Q8WXR4); details: Compound concentration 1000.0 nM
[26] = molecular target: Serine/threonine-protein kinase Nek10 (Homo sapiens) (UniProt Q6ZWH5); details: Compound concentration 1000.0 nM
[27] = molecular target: Serine/threonine-protein kinase PAK 4 (Homo sapiens) (UniProt O96013); details: Compound concentration 1000.0 nM
[28] = molecular target: Platelet-derived growth factor receptor beta (Homo sapiens) (UniProt P09619); details: Compound concentration 1000.0 nM
[29] = tested on: Phosphatidylinositol 4,5-bisphosphate 3-kinase catalytic subunit alpha isoform (Homo sapiens), P42336 [H1047L]; details: Compound concentration 1000.0 nM
[30] = molecular target: Phosphatidylinositol 5-phosphate 4-kinase type-2 gamma (Homo sapiens) (UniProt Q8TBX8); details: Compound concentration 1000.0 nM
[31] = molecular target: Membrane-associated tyrosine- and threonine-specific cdc2-inhibitory kinase (Homo sapiens) (UniProt Q99640); details: Compound concentration 1000.0 nM
[32] = molecular target: Serine/threonine-protein kinase D2 (Homo sapiens) (UniProt Q9BZL6); details: Compound concentration 1000.0 nM
[33] = molecular target: Serine/threonine-protein kinase PRP4 homolog (Homo sapiens) (UniProt Q13523); details: Compound concentration 1000.0 nM
[34] = molecular target: Ribosomal protein S6 kinase alpha-2 (Homo sapiens) (UniProt Q15349); details: Compound concentration 1000.0 nM
[35] = molecular target: Proto-oncogene tyrosine-protein kinase Src (Homo sapiens) (UniProt P12931); details: Compound concentration 1000.0 nM
[36] = molecular target: Tyrosine-protein kinase SYK (Homo sapiens) (UniProt P43405); details: Compound concentration 1000.0 nM
[37] = molecular target: Tyrosine-protein kinase Tec (Homo sapiens) (UniProt P42680); details: Compound concentration 1000.0 nM
[38] = molecular target: TGF-beta receptor type-1 (Homo sapiens) (UniProt P36897); details: Compound concentration 1000.0 nM
[39] = molecular target: Non-receptor tyrosine-protein kinase TNK1 (Homo sapiens) (UniProt Q13470); details: Compound concentration 1000.0 nM
[40] = molecular target: NT-3 growth factor receptor (Homo sapiens) (UniProt Q16288); details: Compound concentration 1000.0 nM
Chain of NT-3 growth factor receptor (Homo sapiens) (Q16288 32-839 limits assumed): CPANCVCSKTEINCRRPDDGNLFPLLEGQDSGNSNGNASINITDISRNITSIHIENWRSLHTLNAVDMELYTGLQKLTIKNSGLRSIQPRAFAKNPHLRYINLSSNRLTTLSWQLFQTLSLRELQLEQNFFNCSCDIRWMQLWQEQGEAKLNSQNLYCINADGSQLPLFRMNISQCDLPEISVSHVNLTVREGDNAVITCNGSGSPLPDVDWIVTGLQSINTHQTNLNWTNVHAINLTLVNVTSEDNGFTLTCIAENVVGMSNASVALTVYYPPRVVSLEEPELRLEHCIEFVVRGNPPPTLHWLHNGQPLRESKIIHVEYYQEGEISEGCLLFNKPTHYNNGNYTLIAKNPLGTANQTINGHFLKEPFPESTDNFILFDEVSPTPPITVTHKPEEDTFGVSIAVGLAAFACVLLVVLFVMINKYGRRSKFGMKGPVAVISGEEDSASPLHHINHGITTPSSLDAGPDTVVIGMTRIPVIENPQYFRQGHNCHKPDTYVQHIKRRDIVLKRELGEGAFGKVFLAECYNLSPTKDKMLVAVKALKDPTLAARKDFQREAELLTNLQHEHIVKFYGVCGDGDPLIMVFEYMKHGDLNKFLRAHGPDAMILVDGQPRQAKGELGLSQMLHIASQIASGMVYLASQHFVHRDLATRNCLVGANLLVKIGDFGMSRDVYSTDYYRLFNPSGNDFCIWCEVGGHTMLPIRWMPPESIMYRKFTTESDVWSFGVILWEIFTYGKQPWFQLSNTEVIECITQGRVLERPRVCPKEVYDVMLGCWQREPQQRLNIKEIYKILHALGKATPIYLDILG

[41] = molecular target: Serine/threonine-protein kinase WNK2 (Homo sapiens) (UniProt Q9Y3S1); details: Compound concentration 1000.0 nM
[42] = molecular target: Mitogen-activated protein kinase kinase kinase 19 (Homo sapiens) (UniProt Q56UN5); details: Compound concentration 1000.0 nM
[43] = molecular target: D(3) dopamine receptor (Homo sapiens) (UniProt P35462); details: Compound concentration 10.0 uM
[44] = molecular target: Sodium-dependent serotonin transporter (Homo sapiens) (UniProt P31645); details: Compound concentration 10.0 uM
[45] = molecular target: Alpha-1D adrenergic receptor (Homo sapiens) (UniProt P25100); details: Compound concentration 10.0 uM

Chain of Serine/threonine-protein kinase BRSK2 (Homo sapiens) (Q8IWQ3 whole entry): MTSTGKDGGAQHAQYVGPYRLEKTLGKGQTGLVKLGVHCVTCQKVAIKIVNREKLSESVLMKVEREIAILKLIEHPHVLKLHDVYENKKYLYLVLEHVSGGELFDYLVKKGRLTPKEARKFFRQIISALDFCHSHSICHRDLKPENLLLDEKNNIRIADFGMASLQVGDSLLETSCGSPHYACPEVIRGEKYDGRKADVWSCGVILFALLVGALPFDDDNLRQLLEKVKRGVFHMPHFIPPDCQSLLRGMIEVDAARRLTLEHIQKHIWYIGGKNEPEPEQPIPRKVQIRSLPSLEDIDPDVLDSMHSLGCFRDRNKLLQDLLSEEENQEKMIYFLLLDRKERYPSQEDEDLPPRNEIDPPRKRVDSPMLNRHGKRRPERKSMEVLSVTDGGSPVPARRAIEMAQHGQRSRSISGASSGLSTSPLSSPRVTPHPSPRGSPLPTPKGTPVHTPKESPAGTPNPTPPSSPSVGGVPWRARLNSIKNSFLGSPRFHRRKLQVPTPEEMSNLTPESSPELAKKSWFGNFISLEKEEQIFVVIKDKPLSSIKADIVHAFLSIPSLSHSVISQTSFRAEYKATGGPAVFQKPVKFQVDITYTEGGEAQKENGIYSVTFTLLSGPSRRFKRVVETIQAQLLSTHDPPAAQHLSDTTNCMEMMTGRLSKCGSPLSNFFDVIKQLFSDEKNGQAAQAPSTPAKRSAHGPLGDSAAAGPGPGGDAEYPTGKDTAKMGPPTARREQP

Cc1c(NC(=O)c2cc(C(N)=O)nc3cc(F)ccc23)c(C(F)(F)F)nn1Cc1ccc(C(C)(C)C)cc1 [BAY-588]
inactive: residual activity [1] 96% | residual activity [2] 100% | residual activity [3] 84% | residual activity [4] 100% | residual activity [5] 100% | residual activity [6] 100% | residual activity [7] 100% | residual activity [8] 100% | residual activity [9] 100% | residual activity [10] 100% | residual activity [11] 79% | residual activity [12] 100% | residual activity [13] 100% | residual activity [14] 100% | residual activity [15] 100% | residual activity [16] 82% | residual activity [17] 100% | residual activity [18] 99% | residual activity [19] 76% | residual activity [20] 100% | residual activity [21] 100% | residual activity [22] 100% | residual activity [23] 95% | residual activity [24] 86% | residual activity [25] 100% | residual activity [26] 100% | residual activity [27] 100% | residual activity [28] 76% | residual activity [29] 100% | residual activity [30] 76% | residual activity [31] 100% | residual activity [32] 100% | residual activity [33] 73% | residual activity [34] 100% | residual activity [35] 100% | residual activity [36] 90% | residual activity [37] 94% | residual activity [38] 91% | residual activity [39] 100% | residual activity [40] 100% | residual activity [41] 100% | residual activity [42] 85% | inhibition [43] 11.9% | inhibition [44] -3.13% | inhibition [45] 2.92%

Cc1c(NC(=O)c2cc(C(N)=O)nc3cc(F)ccc23)c(C(F)(F)F)nn1Cc1ccc(C#N)cc1 [BAY-876]
inactive: residual activity [1] 87% | residual activity [2] 100% | residual activity [3] 100% | residual activity [4] 94% | residual activity [5] 87% | residual activity [6] 100% | residual activity [7] 100% | residual activity [8] 92% | residual activity [9] 96% | residual activity [10] 75% | residual activity [11] 88% | residual activity [12] 95% | residual activity [13] 95% | residual activity [14] 75% | residual activity [15] 75% | residual activity [16] 88% | residual activity [17] 83% | residual activity [18] 100% | residual activity [19] 84% | residual activity [20] 97% | residual activity [21] 79% | residual activity [22] 100% | residual activity [23] 84% | residual activity [24] 93% | residual activity [25] 100% | residual activity [26] 83% | residual activity [27] 98% | residual activity [28] 87% | residual activity [29] 88% | residual activity [30] 100% | residual activity [31] 99% | residual activity [32] 100% | residual activity [33] 93% | residual activity [34] 85% | residual activity [35] 81% | residual activity [36] 95% | residual activity [37] 85% | residual activity [38] 80% | residual activity [39] 81% | residual activity [40] 69% | residual activity [41] 87% | residual activity [42] 72% | inhibition [43] 1.46% | inhibition [44] 0.483% | inhibition [45] 7.36%
